Tested on: circulating lymphocytes
Test: Measurement of Circulating Lymphocytes
Assay type: in vivo, Rats (Lewis strain, male)
Settings: Rattus norvegicus, Lymphocyte, po, 14 h, read-out: Residual Lymphocyte Counts 14 hours after 30 mg/kg p.o. dosing
Procedure: The compounds of formula (I) typically induce the depletion of blood lymphocyte as may be determined in the assay described below. Moreover, compounds of formula (I) are typically efficacious in the said assay also when administered via the per oral route of administration.
Measurement of Circulating Lymphocytes:
The test compounds (or salts thereof) are dissolved in a vehicle such as water, saline, PEG (polyethylene glycol) 200, or PBS (phosphate buffered saline). Rats (Lewis strain, male, 6-12 weeks old) are administered up to 100 mg/kg of the test compounds in 2 ml/kg vehicle via per oral or subcutaneous application. The vehicle or a reference salt and FTY720 (0.3 mg/kg) are included as negative and positive controls, respectively.
Blood is collected from the sublingual vein before and 2, 8 and 24 hours or 14, 18 and 24 hours after the test compound administration under short isoflurane anesthesia. Whole blood samples are subjected to hematology analysis. Peripheral lymphocyte counts are determined using an automated analyzer. The Haemathology System uses a combination of light scatter, cytochemical staining and nuclear density on two independent channels to measure the total and differential white cell counts. Two to four rats are used to assess the lymphocyte depletion activity of each compound screened. The data are presented as mean±SEM.

Structure (SMILES) | response vs control in vivo at 30 mg/kg
Cc1cc([C@@H](C)Nc2cccc(-c3cc(C)c(C(=O)N[C@@H](C)C(=O)O)c(C)c3)c2)ccc1Cl [Example 3, (S)-2-({3′-[(R)-1-(4-Chloro-3-methyl-phenyl)-ethylamino]-3,5-dimethyl-biphenyl-4-carbonyl}-amino)-propionic acid] | 15.5%

Same assay, conditions: Rattus norvegicus, Lymphocyte; male Lewis rats, 14 hours after oral 30 mg/kg, compared to vehicle-only group; mean±SEM; read-out: Residual Lymphocyte Counts 14 hours after 30 mg/kg p.o. dosing

Structure (SMILES) | response vs control in vivo at 30 mg/kg
CC[C@@H](Nc1cccc(-c2cc(C)c(C(=O)N[C@@H](C)C(=O)O)c(C)c2)c1)c1ccc(Cl)c(C)c1 [Example 6, (S)-2-({3′-[(R)-1-(4-Chloro-3-methyl-phenyl)-propylamino]-3,5-dimethyl-biphenyl-4-carbonyl}-amino)-propionic acid] | 15.9%
Cc1cc(C(C)Nc2cccc(-c3cc(C)c(C(=O)NC4(C(=O)O)CC4)c(C)c3)c2)ccc1Cl (stereo not shown) [Example 7, 1-({3′-[1-(4-Chloro-3-methyl-phenyl)-ethylamino]-3,5-dimethyl-biphenyl-4-carbonyl}-amino)-cyclopropanecarboxylic acid] | 14.8%
Cc1cc([C@@H](C)Nc2cccc(-c3cc(C)c(C(=O)NC4(C(=O)O)CC4)c(C)c3)c2)ccc1Cl [Example 8, 1-({3′-[(R)-1-(4-Chloro-3-methyl-phenyl)-ethylamino]-3,5-dimethyl-biphenyl-4-carbonyl}-amino)-cyclopropanecarboxylic acid] | 16.7%
CCC(Nc1cccc(-c2cc(C)c(C(=O)N[C@@H](C)C(=O)O)c(C)c2)c1)c1ccc(Cl)c(Cl)c1 (stereo partly drawn) [Example 20, (S)-2-({3′-[1-(3,4-Dichloro-phenyl)-propylamino]-3,5-dimethyl-biphenyl-4-carbonyl}-amino)-propionic acid] | 18.7%
Cc1cc(C(C)Nc2ccc(F)c(-c3cc(C)c(C(=O)N[C@@H](C)C(=O)O)c(C)c3)c2)ccc1Cl (stereo partly drawn) [Example 22, (S)-2-({5′-[1-(4-Chloro-3-methyl-phenyl)-ethylamino]-2′-fluoro-3,5-dimethyl-biphenyl-4-carbonyl}-amino)-propionic acid] | 18.7%

Molecular target: T1, human S1P1 receptors (Homo sapiens, UniProt P21453)
T1 construct: myc (N); expressed in transfected cells; host or cells: HeLa (human cervix carcinoma, ATCC CCL2), HeLa-S1P1/Gα16 cell clone 1
Test: Human S1P1 Receptor Calcium FLIPR Antagonist Assay (HeLa Gα16 S1P1)
Assay type: cell-based
Settings: relative antagonism of Ca2+ signal evoked by probing agonist GNF-AC-1 at EC80; HeLa-S1P1/Gα16 cells
Procedure, shortened: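 HeLa Gα16 cells expressing S1P1 loaded for calcium fluorescence on FLIPR; compounds added in HBSS with 0.1% BSA, then agonist at EC80 20-30 min later. IC50 from (Fmax-Fmin)/Fmin versus log compound concentration.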

T1 sequence (P21453 whole entry): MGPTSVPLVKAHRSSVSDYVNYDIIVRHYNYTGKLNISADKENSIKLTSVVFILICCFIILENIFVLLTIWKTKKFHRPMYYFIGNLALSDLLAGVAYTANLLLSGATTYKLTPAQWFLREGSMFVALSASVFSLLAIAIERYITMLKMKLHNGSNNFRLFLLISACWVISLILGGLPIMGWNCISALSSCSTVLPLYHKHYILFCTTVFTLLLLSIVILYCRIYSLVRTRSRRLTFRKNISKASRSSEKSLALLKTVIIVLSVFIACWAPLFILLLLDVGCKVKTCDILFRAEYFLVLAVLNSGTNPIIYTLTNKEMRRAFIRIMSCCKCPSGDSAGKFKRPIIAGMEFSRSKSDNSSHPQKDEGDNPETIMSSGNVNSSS

IC50 | Structure (SMILES)
2 nM | CC[C@@H](Nc1cccc(-c2cc(C)c(C(=O)N[C@@H](C)C(=O)O)c(C)c2)c1)c1ccc(Cl)c(C)c1 [Example 6, (S)-2-({3′-[(R)-1-(4-Chloro-3-methyl-phenyl)-propylamino]-3,5-dimethyl-biphenyl-4-carbonyl}-amino)-propionic acid]
2 nM | Cc1cc(C(C)Nc2cccc(-c3cc(C)c(C(=O)NC4(C(=O)O)CC4)c(C)c3)c2)ccc1Cl (stereo not shown) [Example 7, 1-({3′-[1-(4-Chloro-3-methyl-phenyl)-ethylamino]-3,5-dimethyl-biphenyl-4-carbonyl}-amino)-cyclopropanecarboxylic acid]
2 nM | Cc1cc([C@@H](C)Nc2cccc(-c3cc(C)c(C(=O)NC4(C(=O)O)CC4)c(C)c3)c2)ccc1Cl [Example 8, 1-({3′-[(R)-1-(4-Chloro-3-methyl-phenyl)-ethylamino]-3,5-dimethyl-biphenyl-4-carbonyl}-amino)-cyclopropanecarboxylic acid]
8 nM | CCC(Nc1cccc(-c2cc(C)c(C(=O)N[C@@H](C)C(=O)O)c(C)c2)c1)c1ccc(Cl)c(Cl)c1 (stereo partly drawn) [Example 20, (S)-2-({3′-[1-(3,4-Dichloro-phenyl)-propylamino]-3,5-dimethyl-biphenyl-4-carbonyl}-amino)-propionic acid]
2 nM | Cc1cc(C(C)Nc2ccc(F)c(-c3cc(C)c(C(=O)N[C@@H](C)C(=O)O)c(C)c3)c2)ccc1Cl (stereo partly drawn) [Example 22, (S)-2-({5′-[1-(4-Chloro-3-methyl-phenyl)-ethylamino]-2′-fluoro-3,5-dimethyl-biphenyl-4-carbonyl}-amino)-propionic acid]
5 nM | CCC(Nc1ccc(F)c(-c2ccc(C(=O)N(C)[C@@H](C)C(=O)O)c(Cl)c2)c1)c1ccc(Cl)c(C)c1 (stereo partly shown) [Example 88]
13 nM | CCC(Nc1ccc(F)c(-c2ccc(C(=O)N(C)[C@@H](C)C(=O)O)c(C(F)(F)F)c2)c1)c1ccc(Cl)c(C)c1 (stereo partly drawn) [Example 89, (S)-2-({5′-[1-(4-Chloro-3-methyl-phenyl)-propylamino]-2′-fluoro-3-trifluoromethyl-biphenyl-4-carbonyl}-methyl-amino)-propionic acid]
10 nM | Cc1cc(C(Nc2cccc(-c3cc(C)c(C(=O)N[C@@H](C)C(=O)O)c(C)c3)c2)C(C)C)ccc1Cl (stereo partly drawn) [Example 90, (S)-2-({3′-[1-(4-Chloro-3-methyl-phenyl)-2-methyl-propylamino]-3,5-dimethyl-biphenyl-4-carbonyl}-amino)-propionic acid]
4 nM | Cc1cc(C(Nc2cccc(-c3ccc(C(=O)N(C)[C@@H](C)C(=O)O)c(C(F)(F)F)c3)c2)C(F)(F)F)ccc1Cl (stereo partly drawn) [Example 91, (S)-2-({3′-[1-(4-Chloro-3-methyl-phenyl)-2,2,2-trifluoro-ethylamino]-3-trifluoromethyl-biphenyl-4-carbonyl}-methyl-amino)-propionic acid]
4 nM | Cc1cc(C(Nc2cccc(-c3ccc(C(=O)N[C@@H](C)C(=O)O)c(C(F)(F)F)c3)c2)C(F)(F)F)ccc1Cl (stereo partly drawn) [Example 92, (S)-2-({3′-[1-(4-Chloro-3-methyl-phenyl)-2,2,2-trifluoro-ethylamino]-3-trifluoromethyl-biphenyl-4-carbonyl}-amino)-propionic acid]
4 nM | Cc1cc(C(Nc2cccc(-c3ccc(C(=O)N(C)C4(C(=O)O)CC4)c(C(F)(F)F)c3)c2)C(F)(F)F)ccc1Cl (stereo not shown) [Example 93, 1-({3′-[1-(4-Chloro-3-methyl-phenyl)-2,2,2-trifluoro-ethylamino]-3-trifluoromethyl-biphenyl-4-carbonyl}-methyl-amino)-cyclopropanecarboxylic acid]
14 nM | Cc1cc(C(Nc2cccc(-c3ccc(C(=O)N[C@@H](C)C(=O)O)c(Cl)c3)c2)C(F)(F)F)ccc1Cl (stereo partly shown) [Example 94]
14 nM | Cc1cc(C(Nc2cccc(-c3ccc(C(=O)NC4(C(=O)O)CC4)c(Cl)c3)c2)C(F)(F)F)ccc1Cl (stereo not shown) [Example 95, 1-({3-Chloro-3′-[1-(4-chloro-3-methyl-phenyl)-2,2,2-trifluoro-ethylamino]-biphenyl-4-carbonyl}-amino)-cyclopropanecarboxylic acid]
2 nM | Cc1cc([C@H](Nc2cccc(-c3ccc(C(=O)N(C)[C@@H](C)C(=O)O)c(Cl)c3)c2)C(F)(F)F)ccc1Cl [Example 96, (S)-2-({3-Chloro-3′-[(S)-1-(4-chloro-3-methyl-phenyl)-2,2,2-trifluoro-ethylamino]-biphenyl-4-carbonyl}-methyl-amino)-propionic acid]
1 nM | Cc1cc(C(C)(C)Nc2cccc(-c3ccc(C(=O)N[C@@H](C)C(=O)O)c(Cl)c3)c2)ccc1Cl [Example 97, (S)-2-({3-Chloro-3′-[1-(4-chloro-3-methyl-phenyl)-1-methyl-ethylamino]-biphenyl-4-carbonyl}-amino)-propionic acid]
4 nM | Cc1cc(C(C)(C)Nc2cccc(-c3ccc(C(=O)N(C)[C@@H](C)C(=O)O)c(Cl)c3)c2)ccc1Cl [Example 98, (S)-2-({3-Chloro-3′-[1-(4-chloro-3-methyl-phenyl)-1-methyl-ethylamino]-biphenyl-4-carbonyl}-methyl-amino)-propionic acid]
1 nM | CC[C@@H](Nc1cccc(-c2cc(C)c(C(=O)N[C@@H](C)C(=O)O)c(C)c2)c1)c1cc(C)c(Cl)c(C)c1 [Example 101, (S)-2-({3′-[(R)-1-(4-Chloro-3,5-dimethyl-phenyl)-propylamino]-3,5-dimethyl-biphenyl-4-carbonyl}-amino)-propionic acid]
1 nM | CC[C@@H](Nc1cccc(-c2cc(C)c(C(=O)NC3(C(=O)O)CC3)c(C)c2)c1)c1cc(C)c(Cl)c(C)c1 [Example 102, 1-({3-[(R)-1-(4-Chloro-3,5-dimethyl-phenyl)-propylamino]-3,5-dimethyl-biphenyl-4-carbonyl}-amino)-cyclopropanecarboxylic acid]
1 nM | CC[C@H](c1ccc(Cl)c(C)c1)N(C)c1cccc(-c2cc(C)c(C(=O)N[C@@H](C)C(=O)O)c(C)c2)c1 [Example 104, (S)-2-[(3′-{[(R)-1-(4-Chloro-3-methyl-phenyl)-propyl]-methyl-amino}-3,5-dimethyl-biphenyl-4-carbonyl)-amino]-propionic acid]
1 nM | CC[C@@H](Nc1cccc(-c2cc(C)c(C(=O)N(C)[C@@H](C)C(=O)O)c(C)c2)c1)c1ccc(Cl)c(C)c1 [Example 107, (S)-2-({3′-[(R)-1-(4-Chloro-3-methyl-phenyl)-propylamino]-3,5-dimethyl-biphenyl-4-carbonyl}-methyl-amino)-propionic acid]
35 nM | CC[C@H](c1ccc(Cl)c(C)c1)N(C)c1cccc(-c2cc(C)c(C(=O)N(C)C3(C(=O)O)CC3)c(C)c2)c1 [Example 110, 1-[(3′-{[(R)-1-(4-Chloro-3-methyl-phenyl)-propyl]-methyl-amino}-3,5-dimethyl-biphenyl-4-carbonyl)-methyl-amino]-cyclopropanecarboxylic acid]
8 nM | CC[C@@H](Nc1cccc(-c2cc(C)c(C(=O)N(C)C3(C(=O)O)CC3)c(C)c2)c1)c1ccc(Cl)c(C)c1 [Example 111, 1-({3′-[(R)-1-(4-Chloro-3-methyl-phenyl)-propylamino]-3,5-dimethyl-biphenyl-4-carbonyl}-methyl-amino)-cyclopropanecarboxylic acid]
1 nM | Cc1cc([C@@H](C)Nc2cccc(-c3cc(C)c(C(=O)N[C@@H](CN)C(=O)O)c(C)c3)c2)ccc1Cl [Example 114, (S)-3-Amino-2-({3′-[(R)-1-(4-chloro-3-methyl-phenyl)-ethylamino]-3,5-dimethyl-biphenyl-4-carbonyl}-amino)-propionic acid]
2 nM | CC[C@H](c1ccc(Cl)c(C)c1)N(C)c1ccc(F)c(-c2cc(C)c(C(=O)N[C@@H](C)C(=O)O)c(C)c2)c1 [Example 116, (S)-2-[(5′-{[(R)-1-(4-Chloro-3-methyl-phenyl)-propyl]-methyl-amino}-2′-fluoro-3,5-dimethyl-biphenyl-4-carbonyl)-amino]-propionic acid]
4 nM | CC[C@H](c1ccc(Cl)c(C)c1)N(C)c1ccc(F)c(-c2cc(C)c(C(=O)N(C)[C@@H](C)C(=O)O)c(C)c2)c1 [Example 118, (S)-2-[(5′-{[(R)-1-(4-Chloro-3-methyl-phenyl)-propyl]-methyl-amino}-2′-fluoro-3,5-dimethyl-biphenyl-4-carbonyl)-methyl-amino]-propionic acid]

Source: patent US20100168079A1 (priority 2008, published 2010)
